According to BindingDB's records for PubMed 1706716 (Duke University, 1991):

Tests used:
[1] = biological target: T1, Alpha-1A adrenergic receptor (Rattus norvegicus, UniProt P43140)
T1 sequence (P43140 whole entry): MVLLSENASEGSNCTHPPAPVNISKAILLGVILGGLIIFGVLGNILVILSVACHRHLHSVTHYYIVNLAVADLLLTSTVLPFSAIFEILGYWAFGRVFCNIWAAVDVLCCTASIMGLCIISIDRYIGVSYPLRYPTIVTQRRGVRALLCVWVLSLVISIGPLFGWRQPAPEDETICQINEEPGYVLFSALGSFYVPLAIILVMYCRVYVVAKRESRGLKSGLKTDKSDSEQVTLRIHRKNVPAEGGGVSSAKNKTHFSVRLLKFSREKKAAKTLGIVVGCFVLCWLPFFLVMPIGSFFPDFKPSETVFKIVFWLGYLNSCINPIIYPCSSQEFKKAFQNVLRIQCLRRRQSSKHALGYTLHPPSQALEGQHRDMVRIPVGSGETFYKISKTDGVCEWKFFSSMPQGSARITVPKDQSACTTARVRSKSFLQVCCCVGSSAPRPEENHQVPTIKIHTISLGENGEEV

[2] = biological target: T2, Alpha-1B adrenergic receptor (Rattus norvegicus, UniProt P15823)
T2 sequence (P15823 whole entry): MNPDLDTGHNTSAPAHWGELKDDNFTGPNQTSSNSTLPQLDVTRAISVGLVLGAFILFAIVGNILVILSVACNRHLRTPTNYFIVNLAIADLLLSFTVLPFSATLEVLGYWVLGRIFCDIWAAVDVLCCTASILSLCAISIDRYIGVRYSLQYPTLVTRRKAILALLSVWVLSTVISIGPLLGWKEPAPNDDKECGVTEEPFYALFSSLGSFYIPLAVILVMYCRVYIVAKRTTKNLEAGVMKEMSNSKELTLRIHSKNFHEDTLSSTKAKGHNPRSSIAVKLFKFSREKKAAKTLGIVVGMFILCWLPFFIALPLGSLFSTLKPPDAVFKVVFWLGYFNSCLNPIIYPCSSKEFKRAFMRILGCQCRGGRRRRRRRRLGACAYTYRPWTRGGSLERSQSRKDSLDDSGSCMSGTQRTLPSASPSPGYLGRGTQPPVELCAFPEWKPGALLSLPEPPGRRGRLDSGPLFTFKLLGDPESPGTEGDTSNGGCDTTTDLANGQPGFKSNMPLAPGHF

[3] = biological target: T3, Alpha-1A adrenergic receptor (Bos taurus, UniProt P18130)
T3 sequence (P18130 whole entry): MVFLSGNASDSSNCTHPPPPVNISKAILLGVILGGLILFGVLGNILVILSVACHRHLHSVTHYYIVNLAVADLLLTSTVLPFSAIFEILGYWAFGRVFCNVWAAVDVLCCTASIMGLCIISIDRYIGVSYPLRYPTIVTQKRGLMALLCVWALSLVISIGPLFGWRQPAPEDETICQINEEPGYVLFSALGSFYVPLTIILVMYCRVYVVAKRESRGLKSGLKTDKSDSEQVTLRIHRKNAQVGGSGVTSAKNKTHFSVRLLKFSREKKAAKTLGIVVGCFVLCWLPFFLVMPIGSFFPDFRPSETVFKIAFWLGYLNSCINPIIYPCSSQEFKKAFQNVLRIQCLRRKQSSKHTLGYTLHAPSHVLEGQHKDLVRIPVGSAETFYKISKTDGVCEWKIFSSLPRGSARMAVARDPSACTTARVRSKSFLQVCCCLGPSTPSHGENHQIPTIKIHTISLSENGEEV

COc1ccc(OC)c(C(O)C(C)N)c1 (stereo not drawn)
Ki [1]: > 10000 nM | Ki [2]: 1610 nM | Ki [3]: > 10000 nM

O=C(NC1CCN(CCc2c[nH]c3ccccc23)CC1)c1ccccc1 [N-{1-[2-(1H-Indol-3-yl)-ethyl]-piperidin-4-yl}-benzamide(indoramin)]
Ki [1]: 611 nM | Ki [2]: 226 nM

COc1cccc(OC)c1OCCNCC1Oc2ccccc2OC1c1ccccc1 (stereo not drawn) [NSC_185453]
Ki [1]: 2.1 nM | Ki [2]: 28.6 nM | Ki [3]: 0.68 nM

NCC(O)c1ccc(O)c(O)c1 (stereo not drawn) [Noradrenaline,(+)]
Ki [3]: 9730 nM

CNC[C@H](O)c1cccc(O)c1 [PHENYLEPHRINE]
Ki [3]: > 10000 nM

Cc1ccc(N(CC2=NCCN2)c2cccc(O)c2)cc1 [SMR000059054]
Ki [3]: 15.3 nM

Cc1cc(C(C)(C)C)c(O)c(C)c1CC1=NCCN1 [SMR000059324]
Ki [3]: 114 nM

COC(=O)[C@@H]1[C@H]2C[C@H]3c4[nH]c5ccccc5c4CCN3C[C@@H]2CC[C@@H]1O [yohimbic acid methyl ester]
Ki [2]: 517 nM
